One series relates to subjects with NASH. Kind of series: Phase II double blind, placebo-controlled clinical trial of EPA-E in subjects with NASH. Type of series: in vivo, human. Also on record: Efficacy, proportion of responders (NAS Score ≦3 or improvement of ≧2 across at least 2 of NAS components): dose or concentration left out as unconfirmed. The text has this: The non-alcoholic fatty liver disease activity score (NAS) is defined as the unweighted sum of the values for steatosis (ranging from 0-3), lobular inflammation (ranging from 0-3) and ballooning (ranging from 0-2), thereby providing a range of NAS score of from 0 to 8. […] Alternatively, patients can show an improvement in NAS by a value of ≧2 across at least two of the NAS components, together with no worsening in fibrosis. Alternatively, patients can show an improvement in NAS score by ≧3, 4, 5, 6, 7 or 8. This example provides the protocol used for an ongoing phase II clinical trial, double blind, placebo-controlled study to investigate the safety, efficacy, and pharmacokinetic profile of two doses of EPA-E in subjects with NASH. Up to 70 subjects were enrolled into each treatment arm, for a total of 210 subjects to be enrolled. Block randomization using an interactive voice response system (IVRS) was used to assign patients in a 1:1:1 ratio to two active doses and placebo. Patients were stratified at randomization by presence or absence of diabetes. Patients with diabetes comprised no more than 25% of the total number of patients enrolled. […] Subjects were required to have a liver biopsy with proven NASH in the 6 month period prior to screening. The Pharmacokinetic profile for EPA-E was evaluated in a subgroup of subjects in specified sites. Subjects were approached prior to providing informed consent to determine if they will participate in the PK group subset. Approximately 36 subjects participated in the PK subset evaluation (12 from each treatment arm, to include 6 males and 6 females). In order to support the trial, EPA-E capsules and matching placebo capsules were prepared. EPA-E capsule is an oval soft gelatin capsule containing 300 mg of EPA-E as an active ingredient. […] These capsules are unidentifiable as EPA-E capsules or placebo capsules. Subjects were administered orally 3 capsules 3 times daily, immediately after meals. 1. Diagnosis of definite NASH by the central reading pathologists: • Liver biopsy slides will be submitted for evaluation by the central pathologists according to one of the following criteria: • a. Previous liver biopsies must have been obtained within 6 months prior to informed consent and should be judged by the local pathologist as showing NAS ≧4 with a minimum score of 1 each for steatosis and lobular inflammation plus […] ballooning OR at least 1a sinusoidal fibrosis AND a finding of possible or definite steatohepatitis • b. For liver biopsies performed after informed consent is obtained, all slides will be submitted for reading by the central pathologists in conformity with the independent pathology review charter (IPRC)

The subject of series [1] is mouse diet-induced hepatic steatosis model. Kind of series: Mouse diet-induced hepatic steatosis model. The note with it: repeat oral administration at ≧0.1 mg/g. Type of series: in vivo.
Another series deals with rats. As to the kind of experiment: Lipid lowering in rats. The class given is in vivo, rat.
The subject of the next series is rabbits. Kind of series: Lipid lowering in rabbits. Type of series: in vivo, rabbit.
The test system of a further series is platelets from rats. Kind of series: Platelet anti-aggregation, rat platelets. Type of series: cell-based.
The next series has as its system arteries in rabbits. As to the kind of experiment: Elasticity of arteries in rabbits. Type of series: in vivo, rabbit.
Series [2] has as its system central nervous, autonomic nervous, respiratory and cardiovascular systems. Kind of series: Safety pharmacology studies. Type of series: in vivo. The conditions noted are these: oral doses up to 3000 mg/kg.
The test system of series [3] is galactosamine-induced steatohepatitis mouse model. Kind of series: Galactosamine-induced steatohepatitis mouse model. The class given is in vivo. The conditions noted are these: oral administration at 1000 mg/kg; by suppressing triglyceride accumulation.
In series [4] the test system is methionine-choline deficient diet rat model of nonalcoholic steatohepatitis. As to the kind of experiment: Methionine-choline deficient diet rat model of nonalcoholic steatohepatitis. Type of series: in vivo. The note with it: repeat oral administration at 1000 mg/kg; by suppressing inflammation and oxidative stress.
In a further series the test system is platelets from humans. As to the kind of experiment: Platelet anti-aggregation, human platelets. The class given is cell-based.
Another series relates to hamsters. Kind of series: Lipid lowering in hamsters. The class given is in vivo, hamster.
Series [5] in a line: Excretion of radioactivity after single oral administration (rats). The class given is in vivo, rat. The procedure:
(§1) EPADEL is a product containing ethyl all-cis-5,8,11,14,17-eicosapentaenoate (EPA-E), one of the n-3 essential fatty acids. The preclinical absorption, distribution, metabolism and excretion (ADME) characteristics of EPA-E have been determined primarily in rats.
Consequently, when EPA-E is administered orally to humans, it would appear that it is well absorbed, even though the unchanged ethyl ester form is not detected, and the free form (EPA) is only detected at a very low level, in the blood. Due to this absorption mechanism of essential fatty acids, the administered EPA-E exists as a blood-constituent fatty acid in the total lipids. […] Radioactivity was primarily excreted in expired air (44%) after single oral administration at 30 mg/kg EPA-E with minimal excretion in bile and urine (˜3%) and approximately 20% excreted in feces.
Renal excretion was the elimination route for several minor highly polar metabolites (<0.4%), but EPA-E, EPA, DPA or DHA were not detected in the urine. In feces, EPA-E and EPA, evidently derived from the unabsorbed drug, were detected; however, no DPA or DHA was detected in the feces.

The next series deals with platelets from rabbits. Kind of series: Platelet anti-aggregation, rabbit platelets. Type of series: cell-based.
Series [6] is described as follows: Absorption, distribution and metabolites after oral 14C-EPA-E in rats. The class given is in vivo, rat. The procedure:
as §1
After administration of ^14C-EPA-E into the ligated intestine of rats, the residual radioactivity in the intestine at 24 hours was only 4.6% of the administered dose. Radioactivity transferred to the plasma and lymph was mainly detected in the triglyceride (TG) fraction in the early phase after dosing, while distribution to the free fatty acid (FFA) fraction was slight at all timepoints. […] Orally administered EPA-E was primarily incorporated in adrenal gland lipids as cholesterol esters of the fatty acids eicosapentaenoic acid (EPA), docosapentaenoic acid (DPA) and docosahexaenoic acid (DHA).
After oral administration of ^14C-EPA-E to the rat, EPA, DPA and DHA were detected as metabolites in the total lipid fraction of the plasma and tissues (liver, fat, heart and brain). […] In the total lipid fraction of the liver, the radioactivity originated mainly from EPA, DPA and DHA. Thus, it is considered that EPA, DPA and DHA are the predominant metabolites of ^14C-EPA-E in tissues, as constituent fatty acids of the total lipid fraction.

The test system of another series is CYP450. The conditions noted are these: at free concentrations observed in humans; cited from earlier work.

The text below walks through data of patent publication US9889108B2, “Compositions and methods for treating non-alcoholic steatohepatitis” (priority 2013, dated 2018).

For the compound `CC/C=C\C/C=C\C/C=C\C/C=C\C/C=C\CCCC(=O)OCC` [EPA-E, ethyl all-cis-5,8,11,14,17-eicosapentaenoate], the “Serum EPA/AA ratios, patients with sFas≦9.5 ng/mL versus sFas >9.5 ng/mL” value in the series on subjects with NASH (Day 365, FIG. 21 and FIG. 22) is reported as “higher”. Further, the Response rate result with subjects with NASH (fasting glucose=<125 mg/dL and HbA1c=<6.4, Study arm 1, FIG. 4) is “higher response to rate”. In addition, in the series with subjects with NASH (fasting glucose=<125 mg/dL and HbA1c=<6.4, Study arm 2, FIG. 4), the “Efficacy, response rate” value is listed as “equivalent to that of Study arm 1”. The “Efficacy, NASH response (change of NAS score)” value in the series on subjects with NASH (patients with GGT levels=<33 IU/L, Study arm 1 and 2, FIG. 9) is on record as “higher efficacy”; in the series with subjects with NASH (patients with serum sFas equal to or less 9.5 ng/mL, Study arm 1 (1800 mg EPA-E, TID), FIG. 16), “higher efficacy”. Further, the “Efficacy, preliminary endpoint achievement rate” value in the series with subjects with NASH (patients with GGT levels=<60 IU/L, Study arm 1 and 2, FIG. 8) is recorded as “higher efficacy”. Moreover, the “Efficacy, improvement of serum EPA/AA ratio on Day 365” value in the series on subjects with NASH (patients with GGT ≦33 IU/L, Study arm 2, FIG. 10) was “higher efficacy”. The “Efficacy, proportion of responders” value with subjects with NASH (patients with HbA1c=<6.4, Study arm 1, FIG. 2) is “higher efficacy”; with subjects with NASH (patients with HbA1c=<6.4, Study arm 2, FIG. 2), “equivalent to that of Study arm 1”; in the series with subjects with NASH (patients with NASH risk score equal to or less than 4.0, especially 3.0, 1800 mg EPA-E, TID, FIG. 19) it was “higher efficacy”; with subjects with NASH (patients with fasting glucose =<125 mg/dL, Study arm 1, FIG. 3), “higher efficacy”; in the series on subjects with NASH (patients with fasting glucose =<125 mg/dL, Study arm 2, FIG. 3), “equivalent to that of Study arm 1”; in the series on subjects with NASH (patients with sFas equal to or less 10.0 ng/mL and/or M30 equal to or less 1500 U/L, 1800 mg EPA-E, TID and 2700 mg EPA-E, TID, FIG. 18) it was “higher efficacy”. Further, the “Efficacy, proportion of responders” value in the series on subjects with NASH (patients with serum M30 equal to or less 1500 U/L, especially 900 U/L, more especially 500 U/L, 1800 mg EPA-E, TID, FIG. 17) is listed as “higher efficacy”; in the series with subjects with NASH (patients with serum sFas equal to or less 9.5 ng/mL, 1800 mg EPA-E, TID, FIG. 14), “higher efficacy”; in the series with subjects with NASH (patients with serum sFas equal to or less 10.0 ng/mL, especially 9.5 ng/mL, 1800 mg EPA-E, TID, FIG. 15), “higher efficacy”; in the series with subjects with NASH (patients without biliary tract disease markers (GGT ≦33 IU/L), Study arm 1 (600 mg TID) and Study arm 2 (900 mg TID), FIG. 7), “higher efficacy”; with subjects with NASH (patients without diabetes or with mild diabetes, Study arm 2 (900 mg EPA-E, TID), FIG. 1), “equivalent to that of Study arm 1”. The “Efficacy, proportion of responders (NAS Score ≦3 or improvement of ≧2 across at least 2 of NAS components)” value with subjects with NASH (patients without diabetes or with mild diabetes compared to diabetic patients, Study arm 1, FIG. 1) was “higher efficacy”. Also, the Fat accumulation entry in [1] is “suppressed fat accumulation”. Further, in [1], the “Hepatic SREBP-1c levels” value is given as “suppressing hepatic SREBP-1c levels”. Further, the Lipid lowering entry in the series on rats, in the series on rabbits and with hamsters was “lower lipids” in each case. Moreover, the “Effect on platelet aggregation” value in the series on platelets from rats, in the series with platelets from humans and in the series on platelets from rabbits was “anti-aggregation effects” in each case. Also, the Elasticity of arteries result in the series with arteries in rabbits is “preserve the elasticity of arteries”. Also, in [2], the “Effect on central nervous, autonomic nervous, respiratory and cardiovascular systems” value is given as “no effect”. For the same compound, in series [3], the Progression of steatohepatitis result was “retarded progression of steatohepatitis”. For the same compound, the Fibrosis result in series [4] is on record as “inhibited fibrosis”. The “EPA-E and EPA in feces” value in series [5] (derived from the unabsorbed drug, no DPA or DHA detected) is “detected”. In addition, in [5] (species not given), the “EPA-E, EPA, DPA or DHA in the urine” value is recorded as “not detected”. For the same compound, in [6] (single oral dose of 14C-EPA-E 30-1000 mg/kg, rats, mainly through the lymphatic route), the Absorption result is listed as “well-absorbed”.

As to `CC/C=C\C/C=C\C/C=C\C/C=C\C/C=C\CCCC(=O)OCC` [^14C-EPA-E], the “Unchanged EPA-E in the plasma or tissues” value in [6] (after oral administration of 14C-EPA-E to the rat, liver, fat, heart and brain) is recorded as “no unchanged EPA-E was found”. Also, the “Distribution of radioactivity in body tissues” value in series [6] (rats, relatively high levels in brown fat, adrenal, liver and pancreas) is recorded as “widely distributed”.

For `CC/C=C\C/C=C\C/C=C\C/C=C\C/C=C\CCCC(=O)O` [EPA, eicosapentaenoic acid], in the series with CYP450, the “Inhibition of CYP450” value is “unlikely to inhibit”.
